From ChEMBL document CHEMBL5376009 (RSC Med Chem, 2024)

Key:
Influenza A virus [1] = experiment: Antiviral activity against influenza A virus A/PuertoRico/8/1934 (H1N1) infected in MDCK cells assessed as reduction in cytopathic effect incubated for 48 hrs by crystal violet staining based plaque assay; format: functional, organism-based
Influenza A virus [2] = experiment: Antiviral activity against influenza A virus A/Sydney/5/1997 (H3N2) infected in MDCK cells assessed as reduction in cytopathic effect incubated for 48 hrs by crystal violet staining based plaque assay; format: functional, organism-based
Influenza A virus [3] = experiment: Antiviral activity against influenza A virus A/WSN/33 (H1N1) infected in MDCK cells assessed as reduction in cytopathic effect incubated for 48 hrs by crystal violet staining based plaque assay; format: functional, organism-based
Influenza A virus [4] = experiment: Antiviral activity against influenza A virus A/duck/Hokkaido/Vac-3/2007 (H5N1) infected in MDCK cells assessed as reduction in cytopathic effect incubated for 48 hrs by crystal violet staining based plaque assay; format: functional, organism-based
[5] = Cytotoxicity against MDCK cells assessed as reduction in cell viability measured after 48 hrs by WST-1 assay; format: toxicity, cell-based, Canis lupus familiaris; conditions: dog
Influenza A virus [6] = experiment: Antiviral activity against Influenza A virus A/WSN/33 (H1N1) infected in human A549 cells pretreated with cell for 2 hrs followed by viral infection for 1 hrs by plaque assay; format: functional, organism-based
Influenza A virus [7] = experiment: Antiviral activity against Influenza A virus A/Vietnam/1203/04 (H5N1) HALo infected in human A549 cells pretreated with cell for 2 hrs followed by viral infection for 1 hrs by plaque assay; format: functional, organism-based
A549 = experiment: Cytotoxicity against human A549 cells incubated for 48 hrs by cell Titer-Glo assay; format: functional
rhinovirus B14 = experiment: Antiviral activity against Human rhinovirus 14 infected in human HeLa Ohio cells pretreated with cell for 2 hrs followed by viral infection for 1 hrs by plaque assay; format: functional, organism-based; conditions: Rhinovirus B
Influenza A virus [8] = experiment: Antiviral activity against Influenza A virus A/Panama/2007/99 (H3N2) infected in human A549 cells pretreated with cell for 2 hrs followed by viral infection for 1 hrs by plaque assay; format: functional, organism-based
[9] = molecular target: Phosphatidylinositol 4-phosphate 3-kinase C2 domain-containing subunit beta (Homo sapiens, UniProt O00750); experiment: Inhibition of PIK3C2beta (unknown origin) by KINOMEscan method
Phosphatidylinositol 4-phosphate 3-kinase C2 domain-containing subunit beta, sequence (O00750 whole entry, the tested form may be a part): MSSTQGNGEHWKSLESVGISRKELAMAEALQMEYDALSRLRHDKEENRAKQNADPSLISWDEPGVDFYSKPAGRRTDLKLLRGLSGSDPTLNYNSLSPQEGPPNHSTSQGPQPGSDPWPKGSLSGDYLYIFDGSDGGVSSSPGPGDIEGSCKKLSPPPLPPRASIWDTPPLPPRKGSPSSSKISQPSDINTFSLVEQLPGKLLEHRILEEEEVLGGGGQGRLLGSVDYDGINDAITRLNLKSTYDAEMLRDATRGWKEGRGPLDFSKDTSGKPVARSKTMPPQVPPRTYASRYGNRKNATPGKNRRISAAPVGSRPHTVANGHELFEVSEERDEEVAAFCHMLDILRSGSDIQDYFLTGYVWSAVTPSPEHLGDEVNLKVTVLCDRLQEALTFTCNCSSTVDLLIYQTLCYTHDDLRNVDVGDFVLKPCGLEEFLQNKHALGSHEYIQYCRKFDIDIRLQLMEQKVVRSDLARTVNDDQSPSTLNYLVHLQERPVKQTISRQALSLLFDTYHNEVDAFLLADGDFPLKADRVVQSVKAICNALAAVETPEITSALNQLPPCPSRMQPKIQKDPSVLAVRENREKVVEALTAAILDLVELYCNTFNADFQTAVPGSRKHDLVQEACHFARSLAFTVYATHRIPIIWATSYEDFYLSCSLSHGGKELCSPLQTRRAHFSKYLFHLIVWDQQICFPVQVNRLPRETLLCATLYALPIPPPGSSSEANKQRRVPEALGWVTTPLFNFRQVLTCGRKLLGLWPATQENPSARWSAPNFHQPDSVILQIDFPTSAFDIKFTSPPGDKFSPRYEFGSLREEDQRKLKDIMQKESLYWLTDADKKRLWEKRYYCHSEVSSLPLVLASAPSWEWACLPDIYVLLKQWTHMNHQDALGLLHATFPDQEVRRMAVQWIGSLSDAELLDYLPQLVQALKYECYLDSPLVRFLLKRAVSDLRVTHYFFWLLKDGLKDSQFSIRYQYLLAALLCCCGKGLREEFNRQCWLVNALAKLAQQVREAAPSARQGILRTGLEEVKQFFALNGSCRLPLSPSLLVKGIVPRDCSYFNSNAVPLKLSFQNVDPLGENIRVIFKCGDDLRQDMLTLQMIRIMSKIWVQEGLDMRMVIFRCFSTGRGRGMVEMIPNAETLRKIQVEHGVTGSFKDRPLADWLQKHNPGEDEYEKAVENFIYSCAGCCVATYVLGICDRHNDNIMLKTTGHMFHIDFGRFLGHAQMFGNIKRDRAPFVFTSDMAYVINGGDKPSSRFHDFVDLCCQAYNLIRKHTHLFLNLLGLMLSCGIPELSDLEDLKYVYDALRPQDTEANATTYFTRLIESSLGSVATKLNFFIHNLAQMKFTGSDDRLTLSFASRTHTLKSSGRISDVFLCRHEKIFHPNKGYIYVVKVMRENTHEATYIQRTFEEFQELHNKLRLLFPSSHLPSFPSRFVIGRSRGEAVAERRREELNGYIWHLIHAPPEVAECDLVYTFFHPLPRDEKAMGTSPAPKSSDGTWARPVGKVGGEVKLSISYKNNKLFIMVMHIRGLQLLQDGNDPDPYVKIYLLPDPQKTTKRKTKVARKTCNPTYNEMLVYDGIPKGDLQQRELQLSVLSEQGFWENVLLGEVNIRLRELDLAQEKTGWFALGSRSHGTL

Hepatitis C virus = experiment: Antiviral activity against Hepatitis C virus infected in human Huh7.5 cells pretreated with cell for 2 hrs followed by viral infection for 1 hrs by plaque assay; format: functional, organism-based, Hepacivirus hominis
Influenza A virus [10] = experiment: Antiviral activity against influenza A virus A/WSN/1933 (H1N1) infected in HEK293T cells assessed as reduction in cytopathic effect incubated for 24 hrs; format: functional, organism-based; conditions: HEK-293T
[11] = Cytotoxicity against MDCK cells assessed as reduction in cell viability measured after 48 hrs by CCK-8 assay; format: toxicity, cell-based, Canis lupus familiaris; conditions: dog
Influenza B virus [12] = experiment: Antiviral activity against influenza B virus infected in HEK293T cells assessed as reduction in cytopathic effect incubated for 24 hrs; format: functional, organism-based; conditions: HEK-293T
[13] = Selectivity index, ratio of IC50 for cytotoxicity against MDCK cells to EC50 for antiviral activity Influenza A virus A/Vietnam/1203/2004 (H5N1) infected in MDCK cells; format: toxicity, cell-based; conditions: dog, read-out: Selectivity Index
Influenza A virus [14] = experiment: Antiviral activity against Influenza A virus A/California/04/2009 (H1N1) infected in MDCK cells pretreated with cell for 30 mins followed by viral infection and measured for 72 hrs by luminescence based assay; format: functional, organism-based
[15] = Selectivity index, ratio of IC50 for cytotoxicity against MDCK cells to EC50 for antiviral activity Influenza A virus A/California/04/2009 (H1N1) infected in MDCK cells; format: toxicity, cell-based; conditions: dog, read-out: Selectivity Index
Influenza A virus [16] = experiment: Antiviral activity against Influenza A virus A/Vietnam/1203/2004 (H5N1) infected in MDCK cells pretreated with cell for 30 mins followed by viral infection and measured for 72 hrs by luminescence based assay; format: functional, organism-based
[17] = Cytotoxicity against MDCK cells assessed as reduction in cell viability measured after 72 hrs by CCK8 assay; format: toxicity, cell-based, Canis lupus familiaris; conditions: dog
Influenza A virus [18] = experiment: Antiviral activity against influenza A virus A/Anhui/1/2005 (H5N1) infected in MDCK cells assessed as reduction in cytopathic effect incubated for 72 hrs by CPE assay; format: functional, organism-based
Influenza A virus [19] = experiment: Antiviral activity against Influenza A virus A/PR/8/34 (H1N1) infected in human A549 cells pretreated with cell for 3 hrs followed by viral infection and measured for 24 hrs; format: functional, organism-based
[20] = Cytotoxicity against human A549 cells incubated for 48 hrs by neutral red uptake assay; format: toxicity, cell-based
[21] = Cytotoxicity against MDCK cells assessed as reduction in cell viability measured after 72 hrs by fluorescence based assay; format: toxicity, Canis lupus familiaris; conditions: dog
Influenza A virus [22] = experiment: Antiviral activity against influenza A virus A/WSN/1933 (H1N1) infected in MDCK cells assessed as reduction in cytopathic effect by fluorescence based analysis; format: functional, organism-based
[23] = Cytotoxicity against MDCK cells; format: toxicity, cell-based, Canis lupus familiaris; conditions: dog
Influenza A virus [24] = experiment: Antiviral activity against Influenza A virus A (H1N1); format: functional, organism-based
Influenza A virus [25] = experiment: Antiviral activity against influenza A virus H5N1,A/Vietnam/1194/2004 infected in MDCK cells assessed as reduction in plaque formation incubated for 72 hrs by crystal violet staining based analysis; format: functional, organism-based; conditions: H5N1,A/Vietnam/1194/2004, MDCK
[26] = Cytotoxicity against MDCK cells assessed as reduction in cell viability measured after 72 hrs by MTT assay; format: toxicity, cell-based, Canis lupus familiaris; conditions: dog
Influenza A virus [27] = experiment: Antiviral activity against influenza A virus H1N1,A/WSN/1933 infected in MDCK cells assessed as reduction in plaque formation incubated for 72 hrs by crystal violet staining based analysis; format: functional, organism-based; conditions: H1N1,A/WSN/1933, MDCK
Influenza B virus [28] = experiment: Antiviral activity against influenza B virus B/Florida/04/2006 infected in MDCK cells measured after 24 hrs post infection; format: functional, organism-based; conditions: B/Florida/04/2006, MDCK
[29] = Cytotoxicity against MDCK cell incubated for 72 hrs by EZ-Cytox cell viability assay; format: toxicity, cell-based, Canis lupus familiaris; conditions: dog, MDCK cells
Influenza A virus [30] = experiment: Antiviral activity against Influenza A virus A/Perth/16/2009 (H3N2) infected in MDCK cells measured after 24 hrs post infection; format: functional, organism-based
Influenza A virus [31] = experiment: Antiviral activity against Influenza A virus A/California/7/2009 (H1N1) infected in MDCK cells measured after 24 hrs post infection; format: functional, organism-based

## OC(CN1CCCCC1)Cn1c2c(c3ccccc31)CCCC2 (stereo unspecified)
Influenza A virus [1]
  EC50: 30700 nM
Influenza A virus [2]
  EC50: 44700 nM
Influenza A virus [3]
  EC50: 35600 nM
Influenza A virus [4]
  EC50: 39800 nM
[5]
  CC50 at 48 h: > 200000 nM

## O=C(Cc1cccs1)Nc1cccc(-c2ccc3nnc(-c4cccnc4)n3n2)c1
Influenza A virus [6]
  EC50: 2050 nM
Influenza A virus [7]
  EC50: 1770 nM
A549
  CC50: > 50000 nM
Rhinovirus B14
  EC50: 50 nM
Influenza A virus [8]
  EC50: 1220 nM
[9]
  EC50: 430 nM
Hepatitis C virus
  EC50: 760 nM

## C/C(=C\CC/C(C)=C/C[C@]1(O)C(=O)c2c(O)cc(C)c3c(O)c(C)c(O)c(c23)C1=O)CC/C=C(\CO)CC[C@@H](O)C(C)(C)O
Influenza A virus [10]
  EC50: 280 nM
[11]
  CC50 at 48 h: > 100000 nM
Influenza B virus [12]
  EC50: 1220 nM

## CC1CC2=C(NC(=O)NC2c2ccc(O)c(Br)c2)c2ccccc21 (stereo unspecified)
[13]
  selectivity ratio: > 1090
Influenza A virus [14]
  EC50: 98 nM
[15]
  selectivity ratio: > 510
Influenza A virus [16]
  EC50: 46 nM

## CCCC(=O)c1c(O)c(CC2=C(O)C(C)(C)C(O)=C(C(C)=O)C2=O)c(O)c(Cc2c(O)c(CC3=C(O)C(C)(C)C(O)=C(C(C)=O)C3=O)c(O)c(C(=O)CCC)c2O)c1O
[17]
  CC50 at 72 h: > 400000 nM
Influenza A virus [18]
  EC50: 16600 nM

## O=C(CSc1nnnn1-c1ccccc1)NCc1ccccc1
Influenza A virus [19]
  EC50: 46400 nM
[20]
  CC50 at 48 h: > 150000 nM

## CCCCN1Cc2ccccc2Oc2ccccc2S1(=O)=O
[21]
  CC50 at 72 h: > 100000 nM
Influenza A virus [22]
  EC50: 380 nM

## Cc1cccc(N2CCN(Cc3n[nH]c(=O)n3Cc3cccc(F)c3)CC2)c1C
[21]
  CC50 at 72 h: > 100000 nM
Influenza A virus [22]
  EC50: 170 nM

## C=C1Cc2cc(C(F)(F)F)ccc2C(=O)NCC(C)/C(=N/OC)CCCCOC1=O (stereo unspecified)
[23]
  CC50: > 100000 nM
Influenza A virus [24]
  EC50: 570 nM

## Cc1cc(C(=O)NC(C)C23CC4CC(CC(C4)C2)C3)c(C)o1 (stereo unspecified)
Influenza A virus [25]
  EC50: 80 nM
[26]
  CC50 at 72 h: 73000 nM
Influenza A virus [27]
  EC50: 69 nM

## COc1ccccc1-c1cc2c(Nc3ccccc3)nccc2n1C
Influenza B virus [28]
  EC50: 12900 nM
[29]
  CC50 at 72 h: 27200 nM
Influenza A virus [30]
  EC50: 8290 nM
Influenza A virus [31]
  EC50: 1170 nM
